Several values for one entry are separate records, joined by “and”; a condition that tells them apart may be missing. Identical values can stand only once. Like-named read-outs stand apart in the source and are kept apart here. Positions of bridges follow the written chain, without caps; N, C: chain ends. Non-standard residues stand in square brackets, D forms with d. Residues, ends and D or L forms follow the SMILES beside them. Chains are numbered I, II in the order given. *: point of attachment. 5FAM = O=C1OC2(c3ccc(O)cc3Oc3cc(O)ccc32)c2ccc(C(=O)*)cc21; hPhe = N[C@@H](CCc1ccccc1)C(=O)O; 2Abz = Nc1ccccc1C(=O)O; Ahx = NCCCCCC(=O)O
Assays:
Assay type in all cases: cell-based
[1] = MTT cytotoxicity assay in HeLa cells; settings: human
Procedure: MTT assays were conducted in HeLa cells to evaluate the effect of fluorescent probe incorporation on the in vitro cytotoxic activity of the parent non-conjugated peptides. The cytotoxic effect of peptides 1, Abz-1 RhB-1, 2, and RhB-2 in HeLa cells was peptide concentration-dependent, with the highest anticancer activity observed at 200 µg/mL. Incorporation of 2-Abz and RhB at the N-terminal end reduced cytotoxic activity, while the binding of 2-Abz at the C-terminal end or FAM at the N-terminal end drastically diminished anticancer activity (Table 4).

[2] = system: E. coli ATCC 25922
Procedure: (§1) The minimum inhibitory concentration (MIC) of the peptides was determined by the broth microdilution technique, according to the Clinical and Laboratory Standards Institute (CLSI) guidelines, as previously described. Briefly, bacterial strains were incubated in BHI broth at 37 °C until they reached the exponential growth phase, and inocula were adjusted to 5 × 10^6 CFU/mL using calibration curves. Serial dilutions of the peptides to be evaluated in 96-well plates were made in 90 µL of Mueller Hinton broth at concentrations ranging from 200 to 6.25 µg/mL, and 10 µL of the inoculum adjusted to 5 × 10^6 CFU/mL was added. Finally, the plates were incubated at 37 °C for 24 h, and the absorbance at 620 nm was read. As a negative control, CMH, distilled water, and 10 µL of inoculum were used; for the positive control, vancomycin was used for Gram-positive strains and ciprofloxacin for Gram-negative strains at the MICs dictated by the CLSI; as a technical control, CMH with peptone water was used, and for the growth control, CMH was used with 10 µL of inoculum.
(§2) To determine the minimum bactericidal concentration (MBC), the 96-well plates where the MIC was determined were used as a starting point. From these, an aliquot of the controls and those wells where no apparent bacterial growth was observed were spotted onto trypticase soy agar plates. The plates were incubated at 37 °C for 24 h, and the reading was taken, identifying the lowest concentration of the peptide where there was no bacterial growth as the MBC.

[3] = system: E. faecalis ATCC 29212
Procedure: as §1, §2

[4] = system: K. pneumoniae ATCC 700603
Procedure: as §1, §2

[5] = system: P. aeruginosa ATCC 27853
Procedure: as §1, §2

[6] = system: S. aureus clinical isolate 11719
[7] = system: E. coli clinical isolate 1004 (susceptible)
Procedure: (§3) E. coli isolates 1004 (susceptible), 129797 (resistant), and 301755 (MDR) were selected for evaluation. Isolate 1004 was sensitive to all antibiotics tested. […] These findings identify it as a multidrug-resistant (MDR) strain and an extended-spectrum beta-lactamase (ESBL)-producing bacterium. For S. aureus, isolates 109095, 117719, and 124653 were evaluated. All three were resistant to penicillin, indicating beta-lactamase production mediated by the blaZ gene. Studies have shown that up to 90% of S. aureus isolates worldwide are penicillin-resistant, which implies that this antibiotic is ineffective in infections caused by this pathogen. […] Isolate 124653 was resistant to penicillin, tetracycline, and erythromycin, with the latter belonging to the group of macrolides, antibiotics that inhibit protein synthesis through interaction with the 50S […] subunit. For E. faecalis three isolates were selected: strains 213 (sensitive to all the antibiotics tested), strain 82 (resistant to streptomycin), and strain 179 (resistant to gentamicin). These clinical isolates were selected to assess the antimicrobial activity of the peptide RWQWRWQWR and its analogues conjugated to fluorescent molecules in strains against strains with susceptibility profiles.
(§4) The analysis of synthesized peptides in ATCC reference strains and susceptible, resistant, and multidrug-resistant (MDR) clinical isolates was performed. The clinical isolates were obtained from the National Cancer Institute collection and were previously identified and antibiogrammed using the VITEK system. Additionally, the strains were characterized by MALDI-TOF. The strains were re-primed onto trypticase soy agar and subsequently preserved in Brain–Heart Infusion (BHI) broth containing 20% glycerol. For the MIC and MBC assays, the strains were reactivated and cultured in BHI until they reached their exponential growth phase.
as §1, §2

[8] = system: E. coli clinical isolate 129797 (resistant)
Procedure: as §3, §4, §1, §2

[9] = system: E. coli clinical isolate 301755 (MDR)
Procedure: as §3, §4, §1, §2

[10] = system: E. faecalis clinical isolate 179
Procedure: as §3, §4, §1, §2

[11] = system: E. faecalis clinical isolate 213
Procedure: as §3, §4, §1, §2

[12] = system: E. faecalis clinical isolate 82
Procedure: as §3, §4, §1, §2

[13] = system: S. aureus clinical isolate 109095
Procedure: as §3, §4, §1, §2

[14] = system: S. aureus clinical isolate 124653
Procedure: as §3, §4, §1, §2

[15] = system: clinical isolates of E. coli; settings: stated for all three E. coli clinical isolates
Procedure: as §3, §4, §1, §2

[16] = Hemolysis assay
Procedure: (§5) Whole blood was collected into EDTA tubes and centrifuged at 2500 rpm for 10 min. The plasma and buffy coat were removed, and the erythrocytes were washed three times with 0.9% saline to yield a 4% cell suspension. In 96-well plates, 100 µL of peptide dilutions (6.25–200 µg/mL) were prepared in triplicate, and 100 µL of the erythrocyte suspension was added (final hematocrit 2%). Plates were incubated at 37 °C for 2 h, and then centrifuged again at 2500 rpm for 10 min. A 100 µL aliquot of the supernatant was transferred to a fresh plate, and absorbance was measured at 450 nm. Saline and 1× Triton X-100 served as the negative and positive controls, respectively. Hemolysis (%) was calculated as follows: %hemolysis=treatment absorbance−saline absorbance/1×triton absorbance−saline absorbance

[17] = system: S. aureus ATCC 25923; settings: ATCC 25923, 24 h
Procedure: as §1, §2

[18] = system: erythrocytes; assay: Hemolysis assay; settings: 2 h
Procedure: as §5

[19] = S. aureus clinical isolate 11719
[20] = E. coli clinical isolate 129797
[21] = E. coli clinical isolate 301755
[22] = E. faecalis clinical isolate 179
[23] = E. faecalis clinical isolate 213
[24] = E. faecalis clinical isolate 82
[25] = S. aureus clinical isolate 109095
[26] = S. aureus clinical isolate 124653
[27] = clinical isolate 1004 (susceptible, 24 h)
[28] = clinical isolate 129797 (resistant, 24 h)
[29] = clinical isolate 301755 (MDR, 24 h)

CC(C)C[C@H](NC(=O)[C@H](CCCCN)NC(=O)[C@H](CCCCN)NC(=O)[C@H](CCc1ccccc1)NC(=O)[C@H](CCCNC(=N)N)NC(=O)[C@H](Cc1c[nH]c2ccccc12)NC(=O)[C@H](CCC(N)=O)NC(=O)[C@H](Cc1c[nH]c2ccccc12)NC(=O)[C@H](CCCNC(=N)N)NC(=O)[C@@H](N)CCCNC(=N)N)C(=O)NCC(=O)NCCCC[C@H](NC(=O)CNC(=O)[C@H](CC(C)C)NC(=O)[C@H](CCCCN)NC(=O)[C@H](CCCCN)NC(=O)[C@H](CCc1ccccc1)NC(=O)[C@H](CCCNC(=N)N)NC(=O)[C@H](Cc1c[nH]c2ccccc12)NC(=O)[C@H](CCC(N)=O)NC(=O)[C@H](Cc1c[nH]c2ccccc12)NC(=O)[C@H](CCCNC(=N)N)NC(=O)[C@@H](N)CCCNC(=N)N)C(=O)NCCCCCC(N)=O [peptide 2, (RRWQWR-hF-KKLG)2K-Ahx] (I: H-RRWQWR[hPhe]KKLGK[Ahx]-NH2 / II: H-RRWQWR[hPhe]KKLG; amide I:12-II:C; N-terminus assumed)
109 µg/mL and 32 µM: IC50 [1]

N=C(N)NCCC[C@H](NC(=O)[C@H](Cc1c[nH]c2ccccc12)NC(=O)[C@H](CCC(N)=O)NC(=O)[C@H](Cc1c[nH]c2ccccc12)NC(=O)[C@H](CCCNC(=N)N)NC(=O)[C@H](Cc1c[nH]c2ccccc12)NC(=O)[C@H](CCC(N)=O)NC(=O)[C@H](Cc1c[nH]c2ccccc12)NC(=O)[C@@H](N)CCCNC(=N)N)C(=O)Nc1ccccc1C(N)=O [1-Abz, RWQWRWQWR-(2-Abz)] (H-RWQWRWQWR[2Abz]-NH2)
1.5%: hemolysis at 2 h ([16]; at 200 µg/mL (highest tested concentration), 2 h, 37 °C, read-out: hemolysis)
> 125 µM: Minimal bactericidal concentration (MBC) ([3]; E. faecalis ATCC 29212) | Minimal bactericidal concentration (MBC) ([5]; P. aeruginosa ATCC 27853) | Minimal bactericidal concentration (MBC) [10, 22] | Minimal inhibitory concentration (MIC) [10, 22] | Minimal bactericidal concentration (MBC) [11, 23] | Minimal inhibitory concentration (MIC) [11, 23] | Minimal bactericidal concentration (MBC) [12, 24] | Minimal inhibitory concentration (MIC) [12, 24] | Minimal bactericidal concentration (MBC) [14, 26]
125 µM: Minimal inhibitory concentration (MIC) ([3]; E. faecalis ATCC 29212) | Minimal bactericidal concentration (MBC) ([4]; K. pneumoniae ATCC 700603) | Minimal inhibitory concentration (MIC) ([4]; K. pneumoniae ATCC 700603) | Minimal inhibitory concentration (MIC) ([5]; P. aeruginosa ATCC 27853) | Minimal bactericidal concentration (MBC) [6, 19] | Minimal inhibitory concentration (MIC) [6, 19] | Minimal bactericidal concentration (MBC) ([7]; E. coli clinical isolate 1004) | Minimal bactericidal concentration (MBC) [8, 20] | Minimal bactericidal concentration (MBC) [9, 21] | Minimal bactericidal concentration (MBC) [13, 25] | Minimal inhibitory concentration (MIC) [13, 25] | Minimal inhibitory concentration (MIC) [14, 26] | MBC [15]
> 200 µg/mL and > 125 µM: IC50 ([1]; HeLa cells, MTT, read-out: Cytotoxic Activity (IC50))
0.9%: hemolysis at 2 h ([16]; at the lowest MIC concentration, read-out: Percentage of hemolysis)
62 µM: Minimal bactericidal concentration (MBC) ([2]; E. coli ATCC 25922) | Minimal inhibitory concentration (MIC) ([2]; E. coli ATCC 25922) | Minimal inhibitory concentration (MIC) ([7]; E. coli clinical isolate 1004) | Minimal inhibitory concentration (MIC) [8, 20] | Minimal inhibitory concentration (MIC) [9, 21]

N=C(N)NCCC[C@H](NC(=O)[C@H](Cc1c[nH]c2ccccc12)NC(=O)[C@H](CCC(N)=O)NC(=O)[C@H](Cc1c[nH]c2ccccc12)NC(=O)[C@H](CCCNC(=N)N)NC(=O)[C@H](Cc1c[nH]c2ccccc12)NC(=O)[C@H](CCC(N)=O)NC(=O)[C@H](Cc1c[nH]c2ccccc12)NC(=O)[C@H](CCCNC(=N)N)NC(=O)c1ccc2c(c1)C(=O)OC21c2ccc(O)cc2Oc2cc(O)ccc21)C(N)=O [FAM-1, FAM-RWQWRWQWR] (5FAM-RWQWRWQWR-NH2)
17%: hemolysis at 2 h ([16]; Percentage of hemolysis)
0.25: Therapeutic index [18]
> 200 µg/mL and > 108 µM: IC50 [1]
> 108 µM: Minimal bactericidal concentration (MBC) ([2]; ATCC 25922, 24 h) | Minimal bactericidal concentration (MBC) ([3]; ATCC 29212, 24 h) | Minimal bactericidal concentration (MBC) ([4]; ATCC 700603, 24 h) | Minimal inhibitory concentration (MIC) ([4]; ATCC 700603, 24 h) | Minimal bactericidal concentration (MBC) ([5]; ATCC 27853, 24 h) | Minimal inhibitory concentration (MIC) ([5]; ATCC 27853, 24 h) | Minimal bactericidal concentration (MBC) [17] | Minimal bactericidal concentration (MBC) ([6]; clinical isolate 11719, 24 h) | Minimal inhibitory concentration (MIC) ([6]; clinical isolate 11719, 24 h) | Minimal bactericidal concentration (MBC) [7, 27] | Minimal bactericidal concentration (MBC) [8, 28] | Minimal inhibitory concentration (MIC) [8, 28] | Minimal bactericidal concentration (MBC) [9, 29] | Minimal bactericidal concentration (MBC) ([10]; clinical isolate 179, 24 h) | Minimal inhibitory concentration (MIC) ([10]; clinical isolate 179, 24 h) | Minimal bactericidal concentration (MBC) ([11]; clinical isolate 213, 24 h) | Minimal bactericidal concentration (MBC) ([12]; clinical isolate 82, 24 h) | Minimal bactericidal concentration (MBC) ([13]; clinical isolate 109095, 24 h) | Minimal inhibitory concentration (MIC) ([13]; clinical isolate 109095, 24 h) | Minimal bactericidal concentration (MBC) ([14]; clinical isolate 124653, 24 h) | Minimal inhibitory concentration (MIC) ([14]; clinical isolate 124653, 24 h)
54 µM: Minimal inhibitory concentration (MIC) ([3]; ATCC 29212, 24 h) | Minimal inhibitory concentration (MIC) ([12]; clinical isolate 82, 24 h)
108 µM: Minimal inhibitory concentration (MIC) ([2]; ATCC 25922, 24 h) | Minimal inhibitory concentration (MIC) [17] | Minimal inhibitory concentration (MIC) [7, 27] | Minimal inhibitory concentration (MIC) [9, 29] | Minimal inhibitory concentration (MIC) ([11]; clinical isolate 213, 24 h)

Source: paper PMC12383145, “Fluorescent Peptides Internalize HeLa Cells and Kill Multidrug-Resistant Clinical Bacterial Isolates” (Antibiotics, 2025)
